Source: the supplement of paper PMC10307832

Experiments:
Test in all cases: relative viability (nuclei count vs DMSO), 5 days (fraction); higher = more cells survive
[1] = compound: C1=CC(=CC=C1NC(=S)NNC2=C(C=C(C=C2[N+](=O)[O-])C(F)(F)F)[N+](=O)[O-])F [Kobe2602] + CC(=O)Nc1cccc(-n2c(=O)n(C3CC3)c(=O)c3c(Nc4ccc(I)cc4F)n(C)c(=O)c(C)c32)c1 [Trametinib] (partner 0.02 µM)
How it was run: (§1)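 After 5 days of treatment, lung cancer cells in 1536-well plates were fixed and stained in a single step (final 0.05% Triton X-100, 1% formaldehyde, 1 ug/ml Hoechst) and their nuclei counted on 4× images. Treatment had been applied by pin tool the day after seeding as one drug alone or as a fixed anchor-drug dose with five library-drug doses (not always all listed) in √10 steps. Relative viability is the nuclei count of treated wells divided by that of vehicle wells, and values are medians of duplicate plates.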

[2] = compound: O[C@@H](COc1cccc2ncccc12)CN1CCN([C@@H]2c3ccccc3[C@@H]3[C@H](c4ccccc42)C3(F)F)CC1 [Zosuquidar] + NC(=O)Nc1cc(-c2cccc(F)c2)sc1C(=O)N[C@H]1CCCNC1 [AZD7762] (partner 0.2 µM)
How it was run: as §1

[3] = compound: O[C@@H](COc1cccc2ncccc12)CN1CCN([C@@H]2c3ccccc3[C@@H]3[C@H](c4ccccc42)C3(F)F)CC1 [Zosuquidar] + O=C(c1cc(Cc2n[nH]c(=O)c3ccccc23)ccc1F)N1CCN(C(=O)C2CC2)CC1 [Olaparib] (partner 8 µM)
How it was run: as §1

[4] = compound: COc1cc2nccc(Oc3ccc(NC(=O)C4(C(=O)Nc5ccc(F)cc5)CC4)cc3)c2cc1OC [Cabozantinib] + CC(=O)Nc1cccc(-n2c(=O)n(C3CC3)c(=O)c3c(Nc4ccc(I)cc4F)n(C)c(=O)c(C)c32)c1 [Trametinib] (partner 0.02 µM)
How it was run: as §1

Cell Line	relative viability ([1]; first compound 0.2 µM)	relative viability ([1]; first compound 0.6325 µM)	relative viability ([1]; first compound 2 µM)	relative viability ([1]; first compound 6.325 µM)	relative viability ([1]; first compound 20 µM)	relative viability ([2]; first compound 0.01 µM)	relative viability ([2]; first compound 0.03162 µM)	relative viability ([2]; first compound 0.1 µM)	relative viability ([2]; first compound 0.3162 µM)	relative viability ([2]; first compound 1 µM)	relative viability ([3]; first compound 0.01 µM)	relative viability ([3]; first compound 0.03162 µM)	relative viability ([3]; first compound 0.1 µM)	relative viability ([3]; first compound 0.3162 µM)	relative viability ([3]; first compound 1 µM)	relative viability ([4]; first compound 0.02 µM)	relative viability ([4]; first compound 0.06325 µM)	relative viability ([4]; first compound 0.2 µM)	relative viability ([4]; first compound 0.6325 µM)	relative viability ([4]; first compound 2 µM)
LU99A	0.546	0.647	0.571	0.534	0.593	0.257	0.413	0.355	0.418	0.375	0.239	0.264	0.285	0.273	0.254	0.475	0.56	0.535	0.573	0.41
LXF-289	0.665	0.658	0.663	0.691	0.62	1.13	1.18	1.07	1.12	1.14	1.01	1.03	1.09	1.09	1	0.735	0.654	0.659	0.719	0.695
NCI-H23	0.428	0.49	0.359	0.385	0.444	0.319		0.2	0.331	0.224	0.328		0.362	0.319	0.336		0.358	0.42	0.377	0.389
NCI-H322M	0.555	0.495	0.5	0.467	0.521	0.586	0.507	0.495	0.56	0.49	0.774	0.898	0.665	0.698	0.796	0.521	0.546	0.438	0.525	0.545
NCI-H358	0.138	0.15	0.135	0.16	0.141	0.55	0.541	0.492	0.503	0.43	0.671	0.632	0.519	0.65	0.703	0.114	0.138	0.136	0.139	0.126
NCI-H441	0.509	0.496	0.472	0.433	0.54	0.991	1.33	1.09	1.23	1.19	0.708	0.61	0.738	0.482	0.525	0.339	0.502	0.421	0.441	0.361
NCI-H460		0.198	0.183	0.166	0.111	0.54	0.571	0.6	0.607	0.509	0.41	0.403	0.32	0.421	0.39	0.133	0.196	0.134	0.159	0.174
NCI-H522	0.9	0.947	0.736	0.742	0.723	0.993	0.928	1.05	0.807	0.984	0.724	0.623	0.684	0.766	0.668	0.823	0.819	0.78	0.861	0.69
NCI-H596	0.759	0.685	0.772	0.792	0.859	0.974	1.14	0.958	1.25	1.28	0.651	0.607	0.67	0.696	0.666	0.94	0.941	0.797	0.779	0.78
NCI-H647	0.383	0.474	0.505	0.425	0.494	0.417	0.392	0.322	0.681	0.516	0.564	0.519	0.559	0.674	0.566	0.541	0.451	0.449	0.424	0.41
NCI-H650	0.943	0.961	1	0.993	0.845	0.944	0.801	0.897	1.31	0.898	0.393	0.393	0.394	0.454	0.369	0.923	0.998	1.16	0.984	0.876
NCI-H727	0.417	0.408	0.355		0.371	0.502	0.573		0.714	0.405	0.72	0.772		0.746	0.7	0.42	0.409	0.443	0.395	0.386
NCI-H838	0.516	0.566	0.49	0.536	0.466	0.939	0.997	0.898	0.948	0.904	0.758	0.74	0.814	0.825	0.847	0.487	0.533	0.496	0.51	0.498
NCI-H1355	0.441	0.464	0.369	0.415	0.43	0.777	0.778	0.733	0.797	0.86	0.677	0.709	0.791	0.826	0.809	0.433	0.462	0.441	0.421	0.435
NCI-H1395	0.991	1.06	1.03	0.989	1.19	0.398	0.373		0.409	0.429	0.469	0.441		0.501	0.443	0.981	1.18	1.09	1.06	0.938
NCI-H1437	0.458	0.463	0.519	0.603	0.419	1.19	1.16	1.14	1.03	1.19	0.591	0.646	0.669	0.604	0.662	0.571	0.498	0.501	0.598	0.55

Cell Line	relative viability ([1]; first compound 0.2 µM)	relative viability ([1]; first compound 0.6325 µM)	relative viability ([1]; first compound 2 µM)	relative viability ([1]; first compound 6.325 µM)	relative viability ([1]; first compound 20 µM)	relative viability ([2]; first compound 0.01 µM)	relative viability ([2]; first compound 0.03162 µM)	relative viability ([2]; first compound 0.1 µM)	relative viability ([2]; first compound 0.3162 µM)	relative viability ([2]; first compound 1 µM)	relative viability ([3]; first compound 0.01 µM)	relative viability ([3]; first compound 0.03162 µM)	relative viability ([3]; first compound 0.1 µM)	relative viability ([3]; first compound 0.3162 µM)	relative viability ([3]; first compound 1 µM)	relative viability ([4]; first compound 0.02 µM)	relative viability ([4]; first compound 0.06325 µM)	relative viability ([4]; first compound 0.2 µM)	relative viability ([4]; first compound 0.6325 µM)	relative viability ([4]; first compound 2 µM)
NCI-H1648	0.474	0.488	0.465	0.457	0.408	0.633	1.13	0.671	0.538	0.594	0.5	0.908	0.614	0.799	0.877	0.501	0.448		0.672	0.419
NCI-H1651	0.822	0.827	0.847	0.87	0.875	0.459	0.476	0.415	0.403	0.384	0.181	0.194	0.169	0.2	0.179	0.915	0.86	0.845	0.774	0.82
NCI-H1666	0.824	0.836	0.766	0.89	0.808	0.852	0.979	0.752	0.826	0.862	0.75	0.795	0.73	0.815	0.787	0.845	0.83	0.798	0.883	0.878
NCI-H1734	0.618	0.77	0.664	0.711	0.695	0.526	0.515	0.563	0.599	0.514	0.614	0.674	0.613	0.655	0.646	0.738	0.665	0.716	0.623	0.597
NCI-H1755	0.825	0.728	0.779	0.766	0.726	0.399	0.461	0.398	0.497	0.436	0.873	0.88	0.778	0.92	0.867	0.816	0.765	0.795	0.73	0.718
NCI-H1792	0.445	0.446	0.401	0.564	0.366	0.539	0.623	0.5	0.817	1.19	0.334	0.424	0.339	0.422	0.396		0.483	0.455	0.417	0.32
NCI-H1793	0.437	0.459	0.449	0.394	0.399	0.519			0.516	0.692	0.971			1.01	0.758	0.489	0.428		0.432	0.341
NCI-H1915	0.291	0.312	0.292	0.312	0.346	0.714	0.699	0.613	0.816	0.756	0.267	0.261	0.268	0.265	0.291	0.331	0.345	0.335	0.304	0.28
NCI-H1944	0.418	0.409	0.404	0.442	0.423	0.496	0.565	0.479	0.62	0.511	0.404	0.407	0.384	0.516	0.385	0.441	0.401	0.386	0.416	0.413
NCI-H1975	0.332	0.333	0.328	0.29	0.352	0.675	0.744	0.661	0.788	0.791	0.722	0.753	0.784	0.734	0.866	0.331	0.389	0.638	0.417	0.217
NCI-H1993	0.516	0.489	0.429	0.507	0.476	0.692	0.781		0.858	0.908	0.949	1.01		1.19	1.05	0.508	0.531	0.526	0.436	0.571
NCI-H2085	0.614	0.516	0.491	0.409	0.514	0.983	1.04		1.03	0.99	0.706	0.809		0.736	0.751	0.876	0.6	0.571	0.463	0.398
NCI-H2087	0.29	0.188	0.173	0.196	0.191	1.22	1.39	1.32	1.41	1.26	0.586	0.557	0.603	0.578	0.539	0.166	0.258	0.216	0.195	0.209
NCI-H2126	0.594	0.598	0.52	0.577	0.459	1.03	1	0.911	1.04	1.01	0.909	0.868	0.849	0.922	0.917	0.534	0.594	0.568	0.589	0.578
NCI-H2170	0.982	0.918	0.921	0.878	0.922	0.866	0.916	0.776	0.898	0.858	0.546	0.629	0.612	0.63	0.562	0.927	0.921	0.896	0.922	0.95
NCI-H2342	0.741	0.84	0.794	0.68	0.84	0.63	0.527	0.44	0.552	0.47	0.459	0.544	0.421	0.501	0.439	0.872	0.949	0.878	0.738	0.535
